# Measurements as given in ChEMBL document CHEMBL4184115, “In vitro and in silico evaluations of diarylpentanoid series as α-glucosidase inhibitor” (Bioorg Med Chem Lett, 2018).
# How the values were obtained:
# Alpha glucosidase [1] = biological target: T1, Alpha glucosidase (Homo sapiens, UniProt O43451+P10253+P14410+Q2M2H8); experiment: Inhibition of alpha-glucosidase (unknown origin) at 50 uM using 4-Nitrophenyl-alpha-D-glucopyranoside as substrate incubated foe 5 mins followed by substrate addition measured after 15 mins relative to control; type: protein assay
# Alpha glucosidase [2] = biological target: T1, Alpha glucosidase; experiment: Inhibition of alpha-glucosidase (unknown origin) using 4-Nitrophenyl-alpha-D-glucopyranoside as substrate incubated foe 5 mins followed by substrate addition measured after 15 mins; type: protein assay
Compound,inhibition (Alpha glucosidase [1]),IC50 (Alpha glucosidase [2])
O=C(/C=C(O)/C=C/c1cccc(O)c1)c1ccccc1O,40.4%,–
Cc1ccc(/C=C2\CCC/C(=C\c3ccccc3)C2=O)cc1,34.1%,–
O=C(C1=C(O)/C(=C/c2ccc(O)c(O)c2)CCC1)c1ccccc1,55.9%,41 µM
O=C1/C(=C/c2ccccc2)CCC/C1=C\c1ccccc1Br,46.8%,–
O=C1/C(=C/c2ccccc2)CCC/C1=C\c1ccc(Br)cc1,29.1%,–
COc1cccc(/C=C2\CCC/C(=C\c3ccccc3)C2=O)c1OC,31.8%,–
O=C(/C=C(O)/C=C/c1cc(O)ccc1O)c1ccc(O)cc1O,86.6%,20 µM
COc1ccc(/C=C2\CCC/C(=C\c3ccccc3)C2=O)cc1,31.4%,–
Cc1cccc(/C=C2\CCC/C(=C\c3ccccc3)C2=O)c1,47.9%,–
O=C(/C=C(O)/C=C/c1ccc(O)cc1)c1ccccc1O,20.4%,–
O=C1/C(=C/c2ccccc2)CCC/C1=C\c1cccc(Cl)c1Cl,44%,–
O=C1/C(=C/c2ccccc2)CCC/C1=C\c1ccc(F)cc1,34%,–
O=C1/C(=C/c2ccccc2)CCC/C1=C\c1ccccc1F,43%,–
COc1ccc(/C=C2\CCC/C(=C\c3ccccc3)C2=O)c(OC)c1,41%,–
O=C1/C(=C/c2ccccc2)CCC/C1=C\c1ccc(F)c(F)c1,37.8%,–
O=C(/C=C(O)/C=C/c1cccc(O)c1)c1cc(Cl)ccc1O,62.4%,36.4 µM
O=C(/C=C(O)/C=C/c1cc(O)ccc1O)c1cc(O)ccc1O,96.9%,19.6 µM
O=C1/C(=C/c2ccccc2)CCC/C1=C\c1ccc(O)cc1,53%,42.3 µM

Compound,inhibition (Alpha glucosidase [1]),IC50 (Alpha glucosidase [2])
O=C(/C=C(O)/C=C/c1ccco1)c1cc(O)ccc1O,98.4%,14.1 µM
COc1ccc(OC)c(/C=C2\CCC/C(=C\c3ccccc3)C2=O)c1,43.8%,–
O=C(C1=C(O)/C(=C/c2ccc(O)cc2)CCC1)c1ccccc1,34.9%,–
O=C1/C(=C/c2ccccc2)CCC/C1=C\c1ccc(Cl)c(Cl)c1,48.4%,–
O=C1/C(=C/c2ccccc2)CCC/C1=C\c1cccc(F)c1,39.8%,–
O=C(/C=C(O)/C=C/c1ccc(O)cc1O)c1ccccc1O,61.2%,40.7 µM
O=C(/C=C(O)/C=C/c1ccc(O)c(O)c1)c1cc(Cl)ccc1O,85.6%,15.1 µM
O=C1/C(=C/c2ccccc2)CCC/C1=C\c1ccccc1Cl,43%,–
O=C1/C(=C/c2ccccc2)CCC/C1=C\c1ccc(Cl)cc1,27.6%,–
O=C1/C(=C/c2ccccc2)CCC/C1=C\c1cccc(Br)c1,27.2%,–
O=c1c(O)c(-c2ccc(O)c(O)c2)oc2cc(O)cc(O)c12 [QUERCETIN],83.6%,7.8 µM
O=C(/C=C(O)/C=C/c1ccc(O)cc1)c1cc(Cl)ccc1O,45.3%,–
O=C1/C(=C/c2ccccc2)CCC/C1=C\c1cccc(O)c1,65.1%,28.4 µM
COc1cc(/C=C2\CCC/C(=C\c3ccccc3)C2=O)cc(OC)c1OC,16.3%,–
O=C(/C=C(O)/C=C/c1ccc(O)c(O)c1)c1ccccc1O,93.6%,14.3 µM
O=C1/C(=C/c2ccccc2)CCC/C1=C\c1ccc(O)c(O)c1,90.7%,20.3 µM
O=C(C1=C(O)/C(=C/c2cccc(O)c2)CCC1)c1ccccc1,43.2%,–
